Results on 8 molecules are retold here after PubChem BioAssay (NCI).

Among the test systems are HCT-116 colon; A498 renal; HOP-92 NSCLC; HL-60(TB) leukemia; RPMI-8226 leukemia; LOX IMVI melanoma; NCI/ADR-RES ovarian; NCI-H226 lung; NCI-H522 lung; UACC-62 melanoma.
Assay in all cases: NCI-60 cell line screen, 48 h

Where “and” joins values, the source holds several entries; their conditions need not be identical. Identical values can stand only once.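 Method: 48-hour compound exposure of cells in 96-well plates, five concentrations, linear interpolation of endpoints. At the GI50, growth is halved. TGI: total growth inhibition.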 Bounds are passed on as bounds.

Consider `CN1C(=O)C(N=Nc2ccc([N+](=O)[O-])cc2)SC1=S` (centres undefined), for which the GI50 in the experiment on HCT-116 colon is 3.65 µM and 6.79 µM; with A498 renal, 4.1 µM and 4.16 µM; in the experiment with HOP-92 NSCLC it was 1.71 µM; with HL-60(TB) leukemia it was 0.678 µM and 2.84 µM; in the experiment on RPMI-8226 leukemia, 2.62 µM and 2.09 µM; in the experiment on LOX IMVI melanoma it was 2.56 µM and 9.05 µM. Besides, the GI50 in the experiment on NCI/ADR-RES ovarian is 2.62 µM and 4.58 µM; in the experiment on NCI-H226 lung, 21 µM and 18 µM; in the experiment with NCI-H522 lung, 4.52 µM and 3 µM; in the experiment on UACC-62 melanoma, 3.29 µM and 2.85 µM. Moreover, the TGI was 29 µM and 66.3 µM in the experiment on HCT-116 colon; 18.3 µM and 51 µM with A498 renal; 12.3 µM with HOP-92 NSCLC; 8.68 µM and 8.38 µM in the experiment with HL-60(TB) leukemia; 52.4 µM and 18 µM in the experiment on RPMI-8226 leukemia; 48.5 µM and 98.4 µM in the experiment on LOX IMVI melanoma. In addition, the TGI was 64.4 µM and 37 µM in the experiment with NCI/ADR-RES ovarian; over 100 µM with NCI-H226 lung; 52.5 µM and 47.9 µM in the experiment on NCI-H522 lung; over 100 µM in the experiment with UACC-62 melanoma.

For `O=C(O)CN1C(=O)OC(c2ccccc2)C1=O` (centres undefined), the TGI in the experiment with HCT-116 colon, in the experiment with A498 renal, with HOP-92 NSCLC, with HL-60(TB) leukemia, with RPMI-8226 leukemia and in the experiment with LOX IMVI melanoma was over 100 µM each time. In addition, the TGI in the experiment on NCI/ADR-RES ovarian, in the experiment on NCI-H226 lung, in the experiment on NCI-H522 lung and in the experiment with UACC-62 melanoma was over 100 µM each time.

For the molecule `CC(C)(C)N1CC1CNC(=O)C(=O)NCC1CN1C(C)(C)C` (centres undefined), the TGI was 10.8 µM in the experiment with HCT-116 colon; over 6.04 µM with A498 renal; 33.3 µM with HOP-92 NSCLC; 4.57 µM with HL-60(TB) leukemia; over 18.3 µM with RPMI-8226 leukemia; over 54.1 µM in the experiment with LOX IMVI melanoma. Moreover, the TGI in the experiment with NCI/ADR-RES ovarian is over 54 µM; with NCI-H226 lung, 18.7 µM; with NCI-H522 lung, 2.15 µM; with UACC-62 melanoma, 6.82 µM.

`CC(=O)OC1C(O)C(C)OC(OC2C(OC(=O)C3CCC4C(C3)OC3(CC(OC(=O)/C=C/c5ccccc5)C(C)CO3)C43CO3)OC(C)C(O)C2OC(C)=O)C1O` (centres undefined): the TGI with HCT-116 colon was 0.0785 µM; in the experiment on A498 renal it was 0.188 µM; in the experiment on HOP-92 NSCLC, 0.0344 µM; in the experiment on HL-60(TB) leukemia it was 0.0192 µM; in the experiment with RPMI-8226 leukemia it was 0.0945 µM; with LOX IMVI melanoma, 0.0213 µM. For the same molecule, the TGI in the experiment on NCI/ADR-RES ovarian was over 2.5 µM; with NCI-H226 lung it was 0.0522 µM; with NCI-H522 lung, 0.0156 µM; in the experiment with UACC-62 melanoma, 0.0382 µM.

In the case of `CCN1C(=O)/C(=c2\sc3n(c2=O)C2C(NN=3)N(CC)C(=O)N2CC)c2ccccc21` (centres undefined), the GI50 in the experiment on HCT-116 colon was 0.463 µM; with A498 renal it was 0.181 µM; with HOP-92 NSCLC, 1.13 µM; with HL-60(TB) leukemia it was 0.303 µM; in the experiment with RPMI-8226 leukemia, 0.366 µM; in the experiment with LOX IMVI melanoma, 0.666 µM. In addition, the GI50 was 0.411 µM in the experiment with NCI/ADR-RES ovarian, 0.736 µM in the experiment on NCI-H226 lung, 0.384 µM in the experiment on NCI-H522 lung and 0.426 µM in the experiment on UACC-62 melanoma. In addition, the TGI is over 54.3 µM in the experiment with HCT-116 colon; 0.697 µM with A498 renal; 25.6 µM with HOP-92 NSCLC; 1.01 µM in the experiment on HL-60(TB) leukemia; 26.6 µM in the experiment with LOX IMVI melanoma; 13.8 µM with NCI/ADR-RES ovarian. The TGI in the experiment with NCI-H226 lung is 22.8 µM; in the experiment on NCI-H522 lung it was 6.99 µM; with UACC-62 melanoma, 30 µM.

Regarding `CC(=O)Oc1ccc(C2OC(c3ccc4ccccc4c3OC(C)=O)=NN2C(C)=O)c(OC(C)=O)c1` (centres undefined), the GI50 in the experiment on HCT-116 colon is 0.328 µM; in the experiment with A498 renal, 1.73 µM; in the experiment with HOP-92 NSCLC, 0.252 µM; with HL-60(TB) leukemia, 0.267 µM; with RPMI-8226 leukemia, 0.568 µM; with LOX IMVI melanoma, 0.301 µM. Moreover, the GI50 is 0.394 µM with NCI/ADR-RES ovarian, 0.515 µM in the experiment on NCI-H226 lung, 0.369 µM in the experiment with NCI-H522 lung and 0.331 µM in the experiment on UACC-62 melanoma. The TGI is over 40.2 µM in the experiment with HCT-116 colon; 17.5 µM in the experiment on A498 renal; over 29.5 µM with HOP-92 NSCLC; 4.82 µM in the experiment with HL-60(TB) leukemia; over 39.5 µM with RPMI-8226 leukemia; 33.8 µM in the experiment with LOX IMVI melanoma. The TGI with NCI/ADR-RES ovarian is over 74.1 µM; with NCI-H226 lung it was over 38.9 µM; in the experiment with NCI-H522 lung, 6.22 µM; with UACC-62 melanoma, 9.04 µM.

Regarding `CC(C)c1cnc(-c2cc(Cl)ccc2F)cc1Nc1ccncc1C(=O)NC(CO)CO`, the GI50 was 12.5 µM in the experiment with HCT-116 colon; 2.28 µM in the experiment on A498 renal; 1.33 µM with HOP-92 NSCLC; 20.1 µM in the experiment on HL-60(TB) leukemia; 13.5 µM in the experiment with RPMI-8226 leukemia; 13.7 µM with LOX IMVI melanoma. The GI50 with NCI/ADR-RES ovarian is 20.8 µM; with NCI-H226 lung it was 13.6 µM; in the experiment with NCI-H522 lung it was 13 µM; with UACC-62 melanoma, 15.1 µM. In addition, the TGI in the experiment with HCT-116 colon was 28.5 µM; with A498 renal it was 19.7 µM; with HOP-92 NSCLC, 35.4 µM; in the experiment on HL-60(TB) leukemia it was 60.7 µM; in the experiment on RPMI-8226 leukemia it was 52.6 µM; in the experiment on LOX IMVI melanoma it was 27.9 µM. The TGI in the experiment with NCI/ADR-RES ovarian came to 63.2 µM; in the experiment with NCI-H226 lung, 34.8 µM; with NCI-H522 lung, 30.4 µM; with UACC-62 melanoma, 29 µM.

Consider `COc1ccc(-c2nc3sccn3c2-c2ccnc(NCCNS(=O)(=O)c3ccc(C(F)(F)F)cc3)n2)cc1`, for which the GI50 with HCT-116 colon is 0.729 µM; in the experiment on A498 renal, 0.31 µM; in the experiment on HOP-92 NSCLC, 0.153 µM; in the experiment with HL-60(TB) leukemia, 0.494 µM; in the experiment on RPMI-8226 leukemia, 0.626 µM; with LOX IMVI melanoma, 3.26 µM. For the same molecule, the GI50 is 3.12 µM with NCI/ADR-RES ovarian, 2.42 µM with NCI-H226 lung, 2.81 µM in the experiment on NCI-H522 lung and 0.485 µM in the experiment on UACC-62 melanoma. For the same molecule, the TGI in the experiment on HCT-116 colon was 4.61 µM; in the experiment on A498 renal it was 6.86 µM; in the experiment on HOP-92 NSCLC, 2.51 µM; with HL-60(TB) leukemia, over 100 µM; in the experiment on RPMI-8226 leukemia it was 5.53 µM; with LOX IMVI melanoma it was 19.2 µM. In addition, the TGI with NCI/ADR-RES ovarian was over 100 µM; with NCI-H226 lung, 10.3 µM; in the experiment on NCI-H522 lung, 17 µM; in the experiment on UACC-62 melanoma, 3.4 µM.
